The Deep4Chem optical property database
Values belong to the compound of their own block, whether it stands above or below them.

Assay: photoluminescence quantum yield (fraction); solvent given as SMILES

SMILES: CCOC(=O)C(C(=O)OCC)C1=[N+]2C(=C(c3ccc(C)cc3)c3ccc(Cl)n3[B-]2(F)F)C=C1
photoluminescence quantum yield (in C1CCCCC1): 0.46
photoluminescence quantum yield (in C1CCOC1): 0.48
photoluminescence quantum yield (in CCOC(C)=O): 0.4
photoluminescence quantum yield (in CO): 0.28
photoluminescence quantum yield (in Cc1ccccc1): 0.79
photoluminescence quantum yield (in ClC(Cl)Cl): 0.52

SMILES: Cc1ccc(C2=C3C=CC(c4ccccc4)=[N+]3[B-](F)(F)n3c(Cl)ccc32)cc1
photoluminescence quantum yield (in C1CCCCC1): 0.076
photoluminescence quantum yield (in C1CCOC1): 0.084
photoluminescence quantum yield (in C1COCCO1): 0.079
photoluminescence quantum yield (in CCOC(C)=O): 0.046
photoluminescence quantum yield (in CO): 0.037
photoluminescence quantum yield (in Cc1ccccc1): 0.13
photoluminescence quantum yield (in ClC(Cl)Cl): 0.095

SMILES: N#Cc1cc(C#Cc2c(F)c(F)nc(F)c2F)c(C#Cc2c(F)c(F)nc(F)c2F)cc1C#N
photoluminescence quantum yield (in CC#N): 0.49

SMILES: CCCN1c2ccccc2Sc2cc(/C=C\c3cc(=O)oc4cc(C)c(Cl)cc34)ccc21
photoluminescence quantum yield (in ClC(Cl)Cl): 0.77

SMILES: C=C(C)C(CN1C(=O)c2cccc3cccc(c23)C1=O)OO (stereo not drawn)
photoluminescence quantum yield (in CCO): 0.002

SMILES: c1ccc(-c2nc(-c3ccccc3)nc(-c3ccc(-n4c5ccccc5c5c6c(ccc54)-c4ccccc4C6(c4ccccc4)c4ccccc4)cc3)n2)cc1
photoluminescence quantum yield (in O=P(c1ccccc1)(c1ccccc1)c1ccccc1Oc1ccccc1P(=O)(c1ccccc1)c1ccccc1): 0.979

SMILES: CCOC(=O)C1=C(C)NC2=C(C(=O)c3ccccc32)C1c1ccc(N(C)C)cc1 (stereo not drawn)
photoluminescence quantum yield (in C1CCOC1): 0.34
photoluminescence quantum yield (in C1COCCO1): 0.43
photoluminescence quantum yield (in CC#N): 0.3
photoluminescence quantum yield (in CCO): 0.092
photoluminescence quantum yield (in CN(C)C=O): 0.33
photoluminescence quantum yield (in CO): 0.035
photoluminescence quantum yield (in CS(C)=O): 0.29
photoluminescence quantum yield (in ClC(Cl)(Cl)Cl): 0.16
photoluminescence quantum yield (in ClC(Cl)Cl): 0.44
photoluminescence quantum yield (in ClCCl): 0.4

SMILES: CCCn1c(=O)c(/C=C/c2nc3ccc(C)cc3n(CCC)c2=O)nc2ccc(C)cc21
photoluminescence quantum yield (in C1COCCO1): 0.2
photoluminescence quantum yield (in CC#N): 0.15
photoluminescence quantum yield (in ClCCl): 0.21

SMILES: COC(=O)c1nc2c(N(C)C)nc(N)nc2n1Cc1ccccc1
photoluminescence quantum yield (in C1COCCO1): 0.95
photoluminescence quantum yield (in CC#N): 0.83
photoluminescence quantum yield (in CO): 0.39
photoluminescence quantum yield (in ClCCl): 0.95

SMILES: C[Si](C)(C)C#CC(C#C[Si](C)(C)C)=Cc1ccc(C=C(C#C[Si](C)(C)C)C#C[Si](C)(C)C)s1
photoluminescence quantum yield (in ClC(Cl)Cl): 0.01

The next lines start with the values.

photoluminescence quantum yield (in ClCCl): 0.71
SMILES: O=c1c2cccc3cccc(c32)c2nc3ccccc3n12

photoluminescence quantum yield (in C1CCOC1): 0.94
photoluminescence quantum yield (in CC#N): 0.86
photoluminescence quantum yield (in ClC(Cl)Cl): 0.88
photoluminescence quantum yield (in ClCCl): 0.86
SMILES: COc1cc(/C=C/c2nc3ccccc3s2)c(OC)cc1/C=C/c1nc(C)nc(C)n1

photoluminescence quantum yield (in C1CCOC1): 0.011
SMILES: CCOC(=O)c1ccc(C2=C(c3ccccc3)c3oc4ccccc4[n+]3[B-](F)(F)O2)cc1

photoluminescence quantum yield (in ClC(Cl)Cl): 0.61
SMILES: C(#Cc1ccc(C#Cc2ccc(C#Cc3ccccc3)cc2)cc1)c1ccccc1

photoluminescence quantum yield (in CCCCCC): 0.45
photoluminescence quantum yield (in ClCCl): 0.11
SMILES: CC(C)[Si](C#Cc1c2cc3ccccc3cc2c(C#C[Si](C(C)C)(C(C)C)C(C)C)c2nc3cc4c(cc3nc12)C1c2ccccc2C4c2ccccc21)(C(C)C)C(C)C

photoluminescence quantum yield (in ClCCl): 0.59
SMILES: COc1ccc(-c2c3ccccc3c(-c3ccc(OC)cc3)c3ccccc23)cc1

photoluminescence quantum yield (in C1CCOC1): 0.52
SMILES: COc1cc2c(cc1-c1ccc(Cl)cc1)Cc1c3c(c4c(c1-2)-c1cc(OC)c(-c2ccc(Cl)cc2)cc1C4)C(=O)N(CCC(C)C)C3=O

photoluminescence quantum yield (in C1CCOC1): 0.39
SMILES: CCCc1ccc2c(c1)cc1n2B2c3c4c-1cccc4cc1cccc(c31)-c1cc3cc(CCC)ccc3n12

photoluminescence quantum yield (in ClCCl): 0.54
SMILES: COc1cc(-c2ncc(-c3ccncc3)o2)cc(OC)c1OC

photoluminescence quantum yield (in CCOC(C)=O): 0.95
SMILES: C[Si](C)(C)c1cc2c(cc3ccc4cccc5ccc2c3c45)[nH]1

photoluminescence quantum yield (in C1CCCCC1): 0.02
photoluminescence quantum yield (in CO): 0.003
SMILES: C/C(=C\c1ccc(Cl)cc1)c1nc2ccccc2o1

photoluminescence quantum yield (in C1CCOC1): 0.03
SMILES: Cc1cc(C2=C(c3cc(C)sc3C)P(=O)(c3ccccc3)c3ccccc32)c(C)s1 (stereo not drawn)

photoluminescence quantum yield (in ClC(Cl)Cl): 0.159
SMILES: c1ccc(-c2ccc(-c3nc(-c4ccccc4)c(N(c4ccccc4)c4ccccc4)[se]3)cc2)cc1
